Values of other authors as cited in patent US20090291104A1 (Florida Atlantic University, priority 2005, published 2009).

Tested on: K+ channels
Details: cited from earlier work

N--DPCYEVCLQHTGNV-KACEEACQ (NDPCYEVCLQHTGNVKACEEACQ; Opisthacanthus madagascarienses) [OmTx3]
rank as K+ channel blocker within the Om-toxin set: best blocker of the Om-toxin set
